Experimental data taken from patent US11306071B2, “Heterocyclic compounds as adenosine antagonists” (Nuvation Bio Inc., priority 2019, dated 2022).

Columns and labels:
[1] = target: adenosine A1 (human) membrane (Homo sapiens (Human), UniProt P30542); assay: A1 adenosine receptor radioligand binding assay ([3H] DPCPX); settings: 200 nM compound; radioligand [3H] DPCPX 1 nM
Protocol: A second A1 adenosine receptor radioligand binding assay protocol was used. The protocol used adenosine A1 (human) membrane (PerkinElmer ES-010-M400UA) at a concentration of 2.5 μg/well/100 μl and the radioligand [3H] DPCPX (Cat No. PerkinElmer-NET974250UC) at a final concentration of 1 nM. Testing compounds were tested at a final concentration of 200 nM. CGS-15943, the reference compound, was tested in an 8-point 4-fold serial dilution, starting at a top concentration of 1 μM. 1 μl of compounds/high control/low control was transferred to the assay plate according to a plate map, followed by 100 μl of membrane stocks and 100 μl of radioligand, in assay buffer (25 mM HEPES, 5 mM MgCl2, 1 mM CaCl2, 100 mM NaCl, pH 7.4). The plate was sealed and incubated at RT for 1 hour. Unifilter-96 GF/C filter plates (Perkin Elmer Cat #6005174) were soaked with 50 μl of 0.3% PEI per well for at least 0.5 hour at room temperature. When the binding assays were completed, the reaction mixtures were filtered through GF/C plates using Perkin Elmer Filtermate Harvester, and each plate washed 4 times with cold wash buffer (25 mM HEPES, 5 mM MgCl2, 1 mM CaCl2, 100 mM NaCl, pH 7.4). The filter plates were dried for 1 hour at 50 degrees. After drying, the bottom of the filter plate wells was sealed, 50 μl of Perkin Elmer Microscint 20 cocktail was added, and the top of the filter plate was sealed. ^3H trapped on the filter was counted using Perkin Elmer MicroBeta2 Reader. The data were analyzed with GraphPad Prism 5 to obtain binding IC50 values for the reference compound. The “Inhibition [% Control]” was calculated using the equation: % Inh=(1-Background subtracted Assay value/Background subtracted HC value)*100, where HC is high control.

[2] = target: adenosine A2a (human) membrane (Homo sapiens (Human), UniProt P29274); assay: A2A adenosine receptor radioligand binding assay ([3H] CGS-21680); settings: radioligand [3H] CGS-21680 6 nM
Sequence of adenosine A2a (human) membrane (P29274 whole entry): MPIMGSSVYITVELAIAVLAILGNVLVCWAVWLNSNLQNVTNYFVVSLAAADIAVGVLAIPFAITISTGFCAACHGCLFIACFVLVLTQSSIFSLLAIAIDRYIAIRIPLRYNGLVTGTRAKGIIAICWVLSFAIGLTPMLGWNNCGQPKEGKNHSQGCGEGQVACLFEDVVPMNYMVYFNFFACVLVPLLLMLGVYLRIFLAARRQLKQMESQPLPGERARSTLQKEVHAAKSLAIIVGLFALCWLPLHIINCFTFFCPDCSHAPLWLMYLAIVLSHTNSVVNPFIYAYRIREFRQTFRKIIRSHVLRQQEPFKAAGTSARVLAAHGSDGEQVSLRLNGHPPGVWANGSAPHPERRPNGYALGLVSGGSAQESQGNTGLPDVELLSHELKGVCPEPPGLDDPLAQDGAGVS
Protocol: A second A2A adenosine receptor radioligand binding assay protocol was used. The protocol used adenosine A2a (human) membrane (PerkinElmer RBHA2AM400UA) at a concentration of 5 μg/well/100 μl and the radioligand [3H] CGS-21680 (Cat No. PerkinElmer-NET1021250UC) at a final concentration of 6 nM. Testing compounds were diluted with DMSO to make 8-point 4-fold serial dilution, starting at 0.2 mM. CGS-15943 was the reference compound. 1 μl of compounds/high control/low control was transferred to the assay plate according to a plate map, followed by 100 μl of membrane stocks and 100 μl of radioligand, in assay buffer (50 mM Tris-HCl, 10 mM MgCl2, 1 mM EDTA, pH 7.4). The plate was sealed and incubated at RT for 2 hours. Unifilter-96 GF/C filter plates (Perkin Elmer Cat #6005174) were soaked with 50 μl of 0.3% PEI per well for at least 0.5 hour at room temperature. When the binding assays were completed, the reaction mixtures were filtered through GF/C plates using Perkin Elmer Filtermate Harvester, and each plate washed 4 times with cold wash buffer (50 mM Tris-HCl, 154 mM NaCl, pH 7.4). The filter plates were dried for 1 hour at 50 degrees. After drying, the bottom of the filter plate wells was sealed, 50 μl of Perkin Elmer Microscint 20 cocktail was added, and the top of the filter plate was sealed. ^3H trapped on the filter was counted using Perkin Elmer MicroBeta2 Reader. The data were analyzed with GraphPad Prism 5 to obtain binding IC50 values. The “Inhibition [% Control]” was calculated using the equation: % Inh=(1-Background subtracted Assay value/Background subtracted HC value)*100, where HC is high control.

Sequence of adenosine A1 (human) membrane (P30542 whole entry): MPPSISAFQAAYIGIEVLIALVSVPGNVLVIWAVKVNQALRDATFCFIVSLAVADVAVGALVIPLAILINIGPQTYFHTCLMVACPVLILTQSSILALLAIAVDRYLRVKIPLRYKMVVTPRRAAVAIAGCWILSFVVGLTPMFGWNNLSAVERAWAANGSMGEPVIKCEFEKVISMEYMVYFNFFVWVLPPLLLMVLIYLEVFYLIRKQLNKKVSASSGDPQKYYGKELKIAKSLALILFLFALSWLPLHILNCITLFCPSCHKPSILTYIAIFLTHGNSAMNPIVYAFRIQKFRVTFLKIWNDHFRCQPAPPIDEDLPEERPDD

| inhibition at 0.2 µM [1] [%] | IC50 [2] [nM] | A1 binding inhibition at 200 nM (%) [1] [%] | Structure (SMILES) |
| --- | --- | --- | --- |
| 80 | 1.1 |  | C[C@@H](NC(=O)c1nc(-c2cc(Cl)c3ncccc3c2)c(-c2ccccc2)nc1N)c1cccc(C#N)n1 [Compound No. 121, (R)-3-amino-6-(8-chloroquinolin-6-yl)-N-(1-(6-cyanopyridin-2-yl)ethyl)-5-phenylpyrazine-2-carboxamide] |
|  | 4.7 |  | CC(NC(=O)c1nc(-c2ccc3ncccc3c2)c(-c2ccn(C)n2)nc1N)c1ccccn1 (stereo not shown) [Compound No. 459, 3-amino-5-(1-methyl-1H-pyrazol-3-yl)-N-(1-(pyridin-2-yl)ethyl)-6-(quinolin-6-yl)pyrazine-2-carboxamide] |
|  | 1.1 | 89 | C[C@@H](NC(=O)c1nc(-c2cc(Cl)c3ncccc3c2)c(-c2ccccc2)nc1N)c1ccccn1 [Compound No. 123, (R)-3-amino-6-(8-chloroquinolin-6-yl)-5-phenyl-N-(1-(pyridin-2-yl)ethyl)pyrazine-2-carboxamide] |
| 45 | 6.8 |  | CC(NC(=O)c1nc(-c2ccc3ncccc3c2)c(-c2ccccc2)nc1N)c1ncccn1 (stereo not shown) [Compound No. 120, 3-amino-5-phenyl-N-(1-(pyrimidin-2-yl)ethyl)-6-(quinolin-6-yl)pyrazine-2-carboxamide] |
|  | 12 | 92 | CC(NC(=O)c1nc(-c2cc(Cl)c3ncccc3c2)c(-c2ccccc2)nc1N)c1ccccn1 (stereo not shown) [Compound No. 119, 3-amino-6-(8-chloroquinolin-6-yl)-5-phenyl-N-(1-(pyridin-2-yl)ethyl)pyrazine-2-carboxamide] |
| 95 | 3.5 |  | CC(NC(=O)c1nc(-c2cc(Cl)c3ncccc3c2)c(-c2ccccc2)nc1N)c1cccc(C#N)n1 (stereo not shown) [Compound No. 114, 3-amino-6-(8-chloroquinolin-6-yl)-N-(1-(6-cyanopyridin-2-yl)ethyl)-5-phenylpyrazine-2-carboxamide] |
|  | 7.3 |  | CC(NC(=O)c1nc(-c2ccc3ncccc3c2)c(-c2ccn(C)n2)nc1N)c1ncccn1 (stereo not shown) [Compound No. 460, 3-amino-5-(1-methyl-1H-pyrazol-3-yl)-N-(1-(pyrimidin-2-yl)ethyl)-6-(quinolin-6-yl)pyrazine-2-carboxamide] |
| 58 | 4.7 |  | C[C@@H](NC(=O)c1nc(-c2cc(Cl)c3ncccc3c2)c(-c2ccccc2)nc1N)c1ccccn1 [Compound No. 113, (R)-3-amino-6-(8-chloroquinolin-6-yl)-5-phenyl-N-(1-(pyridin-2-yl)ethyl)pyrazine-2-carboxamide] |
| 98 | 5.4 |  | C[C@H](NC(=O)c1nc(-c2ccc3ncccc3c2)c(-c2ccccc2)nc1N)c1cccc(C#N)n1 [Compound No. 116, (S)-3-amino-N-(1-(6-cyanopyridin-2-yl)ethyl)-5-phenyl-6-(quinolin-6-yl)pyrazine-2-carboxamide] |
| 61 | 3.9 |  | C[C@H](NC(=O)c1nc(-c2ccc3ncccc3c2)c(-c2ccccc2)nc1N)c1cnccn1 [Compound No. 129, (S)-3-amino-5-phenyl-N-(1-(pyrazin-2-yl)ethyl)-6-(quinolin-6-yl)pyrazine-2-carboxamide] |
| 74 | 64 |  | C[C@@H](NC(=O)c1nc(-c2ccc3ncccc3c2)c(-c2ccccc2)nc1N)c1cccc(C#N)n1 [Compound No. 115, (R)-3-amino-N-(1-(6-cyanopyridin-2-yl)ethyl)-5-phenyl-6-(quinolin-6-yl)pyrazine-2-carboxamide] |
| 92 | 16 |  | C[C@H](NC(=O)c1nc(-c2ccc3ncccc3c2)c(-c2cccc(C#N)c2)nc1N)c1cccc(C#N)n1 [Compound No. 118, (S)-3-amino-5-(3-cyanophenyl)-N-(1-(6-cyanopyridin-2-yl)ethyl)-6-(quinolin-6-yl)pyrazine-2-carboxamide] |
